Consider four compounds from patent US7910755B2, “Stem cell expansion and uses” (priority 2004, dated 2011).

In assay [1] the test system is female BALB/cByJ mice, DTH response to topical oxazolone challenge. Nature of the assay: Modulation of delayed type hypersensitivity (oxazolone ear challenge). It is filed as in vivo. The conditions noted are these: difference right minus left ear, 24 hours following oxazolone challenge; vehicle alone 0.225 mm.
Description: Modulation of delayed type hypersensitivity. The capacity of F1Cs to modulate delayed type hypersensitivity (DTH) is determined in mice. Groups of five female BALB/cByJ mice (20-25 grams) are anesthetized and 100 μL of a 3% solution of oxazolone is applied on day 0 to the shaved abdomen and dried. Seven days later, on day 7, the mice are challenged by applying 5 μL of oxazolone topically to each side of the right ear. The F1C (at about 20-100 mg/mL) in vehicle is administered by subcutaneous injection (2 mg/day) one time on day 6, 24 hours before the oxazolone challenge. The vehicle as a non-aqueous suspension of the F1C in, e.g., 2% benzyl alcohol w/v, 0.1% Brij 96 w/v and equal volumes of PEG 300 and propylene glycol.
Dexamethasone in saline (0.2 mg/mL) is administered daily for 9 days (day −1 to 7), first dose 24 hours before sensitization, last dose at challenge by subcutaneous injection (0.01 mg/dose, 50 μl/injection). On Day 8, 24 hours following the oxazolone challenge, both the right and left ear thicknesses are measured using a micrometer caliper and the differences are determined. The differential ear thickness is measured as an indicator of the DTH response to topical oxazolone challenge. The DTH response is expressed as the difference in the thickness (mm) between the right and the left ears for each animal.
The test system of assay [2] is lethally-irradiated female B6D2F1 mice. The experiment in a line: Survival of lethally-irradiated mice (10 Gy total body irradiation, 137Cs). It is filed as in vivo. The conditions noted are these: groups of 12. How it is done:
Exposure of rodents to ionizing radiation exposure. The effect of selected F1Cs on survival of lethally-irradiated female B6D2F1 mice were compared to control animals treated with vehicle alone. The animals were exposed to 10 Gy of total body irradiation at 2.5 Gy/min using a ^137Cs source. […] For Group 4, test article was administered as a 50 μL volume, by intramuscular injection for three consecutive days. The formulation was a suspension containing 0.1% w/v carboxymethyl-cellulose, 0.9% w/v sodium chloride and 0.05% v/v phenol. The formulations were agitated to uniformly resuspend the F1C before syringing, and injected into animals within a few minutes of drawing into the syringe to prevent settling in the syringe.
The groups of animals were treated as follows.

Assay [3] concerns Macaca mulatta (Rhesus monkey) exposed to 6 Gy γ-radiation.
Excerpt: Treatment of whole body lethal radiation and characterization of mortality surrogate markers. Two groups of 10 Macaca mulatta (Rhesus monkey) were exposed to a 6 Gy dose of γ-radiation from a ^60Co source. This dose is an LD50/30 dose for this species. […] The age range was 1.75-5.0 years at the onset of treatment.
Test article was an aqueous suspension in vehicle. The vehicle article consists of a solution of sodium chloride (0.9% w/v), carboxymethylcellulose (0.5% w/v), polysorbate 80 (2% v/v), benzalkonium chloride (0.02% v/v) and sodium phosphate (10 mM, pH 6.5). Immediately prior to drawing into a syringe, the test article formulation was briefly vortexed to uniformly distribute sedimented test article. Once drawn into a syringe, the test article was administered within 10 minutes. Just prior to injection, the syringe containing the test article was rotated end-over-end to uniformly disperse the compound.
Whole body radiation. The animals were exposed to ionizing as follows. Dosimetry measurements using phantoms, the dose rate and duration of irradiation and the actual time of irradiation for each individual animal was recorded. Animals were fasted overnight prior to whole-body irradiation and fed upon return to the housing facility. Animals were transferred to the treatment facility in a transport vehicle with controlled environment. During transportation, each animal was individually housed in a stainless steel squeeze back cage. Temperature in the transport vehicle was automatically recorded every 5 minutes during transportation. Clinical signs were monitored immediately before and after transportation.
The animals received a midline treatment dose of 600 cGy. The dose rate of the ^60Co gamma source was about 60 cGy per minute and the actual rate was recorded for each animal. To obtain a homogenous dose distribution, the radiation treatment was divided in two parts. First, the animal received half of the dose by anteroposterior irradiation. The second half of the dose was delivered by posteroanterior irradiation. Once the treatment was completed, animals were returned to the transport vehicle and transported to the housing facility. The radiation dose was calibrated using an acrylic phantom placed in the same experimental set up that was used for animal irradiation.
The animals received the vehicle control once daily for five consecutive days by intramuscular injections. The first injection on day 1 was administered at 2-3 hours after irradiation. The dose volume was 0.15 mL/kg for all animals. The dose volume was evenly divided between two distinct sites (approximately 0.075 mL/kg per site). The actual volume delivered was calculated and adjusted based on each animal's body weight.
During the pre-treatment period cage side observations of clinical signs were performed once daily. A detailed clinical examination was performed on all animals once prior to irradiation on day 1, day 9, weekly thereafter and at day 40 and 41. After radiation, the animals and clinical signs were observed twice a day during the protocol or as often as deemed necessary. Moribund animals were euthanized for humane reasons.
Where [4] appears, read: day 6, 0.6 mg s.c. daily for 3 days.
[5] abbreviates: day 7, 0.6 mg s.c. daily for 3 days.
Where [6] appears, read: day 12, 0.6 mg s.c. daily for 3 days.
[7] abbreviates: day 21, 0.6 mg s.c. daily for 3 days.

`C[C@@H]1C[C@H]2[C@@H]3CCC4=CC(=O)C=C[C@]4(C)[C@@]3(F)[C@@H](O)C[C@]2(C)[C@@]1(O)C(=O)CO` [dexamethasone]: in assay [1], the “differential ear thickness (DTH response)” value is listed as 0.144 mm.
With `O=P1(N(CCCl)CCCl)NCCCO1` (centres unmarked) [cyclophosphamide], the “differential ear thickness (DTH response)” value in assay [1] is recorded as 0.092 mm.
On to `C[C@]12CC[C@H]3[C@@H](CC=C4C[C@@H](O)CC[C@@]43C)[C@@H]1CC[C@@H]2N` [3β-hydroxy-17,7-aminoandrost-5-ene], for which the “number of surviving animals” value in assay [2] (setting [4]) is on record as 12; in assay [2] (setting [5]), 12; in assay [2] (setting [6]), 12; in assay [2] (setting [7]), 11.
Regarding `C[C@]12CC[C@H]3[C@@H](CC=C4C[C@@H](O)CC[C@@]43C)[C@@H]1CC[C@@H]2O` [3β,17β-dihydroxyandrost-5-ene], the “number of surviving animals” value is listed as 12 in assay [2] (day 6, 0.6 mg i.m. daily for 3 days); 12 in assay [2] (setting [4]); 12 in assay [2] (day 6, 3.0 mg s.c. daily for 3 days); 12 in assay [2] (day 7, 0.6 mg i.m. daily for 3 days); 11 in assay [2] (setting [5]); 12 in assay [2] (day 7, 3.0 mg s.c. daily for 3 days). Also, the “number of surviving animals” value in assay [2] (day 12, 0.6 mg i.m. daily for 3 days) worked out at 11; in assay [2] (setting [6]), 10; in assay [2] (day 12, 3.0 mg s.c. daily for 3 days), 9; in assay [2] (day 21, 0.6 mg i.m. daily for 3 days), 9; in assay [2] (setting [7]), 7; in assay [2] (day 21, 3.0 mg s.c. daily for 3 days), 7. Besides, in assay [3] (15 mg/kg i.m. for 5 days, group of 10, at some time during the protocol), the “number of animals having febrile severe neutropenia (>40.4° C. and absolute neutrophil count less than 500 cells/μL)” value came out at 2. The “days of severe thrombocytopenia (less than 20,000 platelets/μL) experienced collectively” value in assay [3] (15 mg/kg i.m. for 5 days, group of 10, vehicle 51 days, p=0.009) is listed as 32 days. Besides, the “median days of febrile severe neutropenia” value in assay [3] (15 mg/kg i.m. for 5 days, vehicle median 5 days, p=0.037) was determined as 0 days. Besides, the animals survived in assay [3] (15 mg/kg i.m. once per day for 5 days, 40 days) is 9 of 10. In addition, in assay [3] (15 mg/kg i.m. once per day for 5 days, control group 40%), the Mortality is given as 10%.
